The values that follow are results of earlier work, collected in patent publication US20120141611A1, “METHODS AND COMPOSITIONS USING ERGOTHIONEINE TO TREAT A VARIETY OF HEALTH RELATED FACTORS” (Oxis International Inc., priority 2010, published 2012).

One data set relates to intestinal polyps. The settings on record: mouse, in vivo; cited from earlier work.
The conditions of data set [1]: people taking vitamin C supplements, 1,032 subjects; cited from earlier work.
For data set [2] the following is noted: single elderly person, stable seven years later; cited from earlier work.
For data set [3] the following is noted: 537 osteoarthritis patients, after 27 weeks; cited from earlier work.

Regarding `COc1cc(/C=C/C(=O)CC(=O)/C=C/c2ccc(O)c(OC)c2)ccc1O` [curcumin], in the data set with intestinal polyps, the “Reduction of intestinal polyps” value was 75%. With `O=C1O[C@H]([C@@H](O)CO)C(O)=C1O` [vitamin C], the “Reduced likelihood of developing osteoarthritis in the knee” value in data set [1] is recorded as 11%. Turning to Cyanocobalamin [vitamin B12], in data set [2], the Dementia outcome was “their dementia disappeared”. As for hyaluronic acid, the Joint pain entry in data set [3] was “significantly reduce joint pain while resting and while walking”.
